Key:
Type in all cases: cell-based
lung cancer cells A549 = test: Growth inhibition of tumor cells A549; details: Homo sapiens
lung cancer cells H3122 = test: Growth inhibition of tumor cells H3122; details: Homo sapiens, NCI-H3122
wild type BaF3 = test: Growth inhibition of wild type BaF3 cells (broad-spectrum toxicity); details: Mus musculus, BaF3, 48 h, MTS
In short: (§1)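 MTS absorbance at 490 nm, measured 1–4 h after reagent addition, reports growth after 48 h compound exposure (37 °C, 5% CO2) of 2×10^4 cells/well. Eight 1/3-step concentrations from a 10 μM top, 0.1% DMSO; triplicate inhibition relative to vehicle and blank gives IC50.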

melanoma A375 = test: Growth inhibition of tumor cells A375; details: Homo sapiens, A-375
EML4-ALK-BaF3 = biological target: T1, EML4-ALK-BaF3 (Homo sapiens, UniProt Q9UM73); test: Growth inhibition of EML4-ALK transformed BaF3 cells (MTS); details: for IC50: EML4-ALK-BaF3 cells, 48 hours, MTS, Table 11
T1 construct: expressed in transfected cells; host or cells: Ba/F3 cells; the other entry of the earlier key: EML4 (Q9HC35, Echinoderm microtubule-associated protein-like 4)
In short: (§2)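 Ba/F3 cells (2×10^4/well) in DMEM or RPMI1640 with 10% FBS exposed to 8 compound concentrations (top 10 μM, 1/3 serial dilution, 0.1% DMSO) for 48 h at 37 °C, 5% CO2. Viability by MTS/PES, 1-4 h, OD 490 nm; triplicates. IC50 fitted from inhibition rate.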

EML4-ALK (L1196M)-BaF3 = biological target: T2, EML4-ALK (L1196M)-BaF3 (Homo sapiens, UniProt Q9UM73, L1196M); test: Growth inhibition of EML4-ALK (L1196M) transformed BaF3 cells (MTS); details: 48 hours, Table 11, read-out: EML4-ALK (L1196M) (IC50 nM)
T2 construct: expressed in transfected cells; host or cells: Ba/F3 cells; the other entry of the earlier key: EML4 (Q9HC35, Echinoderm microtubule-associated protein-like 4)
In short: as §2

liver cancer HepG2 = test: Growth inhibition of tumor cells HepG2; details: Homo sapiens
[1] = test system: DFC1076 (crizotinib resistant tumor cell lines); test: Growth inhibition of tumor cells DFC1076; details: ALK kinase-positive lung cancer cell line
NPM-ALK-BaF3 = biological target: T3, NPM-ALK-BaF3 (Homo sapiens, UniProt Q9UM73); test: Growth inhibition of NPM-ALK transformed BaF3 cells (MTS); details: 48 hours, Table 11
T3 construct: expressed in transfected cells; host or cells: Ba/F3 cells; the other entry of the earlier key: NPM1 (P06748, Nucleophosmin)
In short: as §1

breast cancer MCF7 = test: Growth inhibition of tumor cells MCF7; details: Homo sapiens

| Compound | IC50 (EML4-ALK-BaF3) | IC50 (EML4-ALK (L1196M)-BaF3) | IC50 (NPM-ALK-BaF3) | IC50 (wild type BaF3; Table 11) | further results |
| --- | --- | --- | --- | --- | --- |
| C[C@@H](Oc1cc(-c2cnn(C3CCNCC3)c2)cnc1N)c1c(Cl)ccc(F)c1Cl [Crizotinib, crizotinib, reference compound] |  |  |  | 1080 nM | IC50 (lung cancer cells A549): 2400 nM; IC50 (lung cancer cells H3122): 185 nM; IC50 (wild type BaF3; Table 12): 1080 nM |
| COc1cc(N2CCC(N3CCN(C)CC3)CC2)ccc1Nc1nc(Nc2ccccc2S(=O)(=O)C(C)C)c2[nH]ccc2n1 [ID-3] | 14.9 nM | 168 nM | 303 nM | 1010 nM | IC50 (melanoma A375): 3760 nM; IC50 (lung cancer cells A549): 2720 nM; targeting selectivity (EML4-ALK-BaF3; ratio of IC50 between wild-type BaF3 and ALK transformed BaF3 cells): good targeting selectivity; IC50 (liver cancer HepG2): 3440 nM; IC50 (lung cancer cells H3122): 61.1 nM; growth inhibition [1]: good growth inhibition; IC50 (breast cancer MCF7): 2840 nM |
| COc1cc(N2CCN(C)CC2)ccc1Nc1nc(NCc2ccccc2SC)c2[nH]ccc2n1 [IL-1] | 1320 nM | 1620 nM | ~929 nM | ~2820 nM |  |
| COc1cc(N2CCC(N3CCN(C)CC3)CC2)ccc1Nc1nc(NCc2ccccc2SC)c2[nH]ccc2n1 [IL-2] | ~2570 nM | 2000 nM | ~7720 nM | ~7840 nM |  |
| CSc1ccccc1CNc1nc(Nc2ccc(N3CCC(O)CC3)cc2)nc2cc[nH]c12 [IL-3] | 3500 nM | 5020 nM | 5180 nM | 5180 nM |  |
| CSc1ccccc1CNc1nc(Nc2ccc(S(N)(=O)=O)cc2)nc2cc[nH]c12 [IL-4] | 9510 nM | > 10000 nM | > 10000 nM | > 10000 nM |  |
| COc1cc(N2CCN(C)CC2)ccc1Nc1nc(NCc2ccccc2SC(C)C)c2[nH]ccc2n1 [IM-1] | ~300 nM | 587 nM | 572 nM | ~867 nM |  |
| CC(C)Sc1ccccc1CNc1nc(Nc2ccc(N3CCC(O)CC3)cc2)nc2cc[nH]c12 [IM-2] | 1240 nM | 1310 nM | 1620 nM | 2900 nM |  |
| CC(C)Sc1ccccc1CNc1nc(Nc2ccc(S(N)(=O)=O)cc2)nc2cc[nH]c12 [IM-3] | 7530 nM | > 10000 nM | > 10000 nM | > 10000 nM |  |
| COc1cc(N2CCN(C)CC2)ccc1Nc1nc(NCc2ccccc2S(C)(=O)=O)c2[nH]ccc2n1 [IN-1] | > 10000 nM | > 10000 nM | > 10000 nM | > 10000 nM |  |
| COc1cc(N2CCC(N3CCN(C)CC3)CC2)ccc1Nc1nc(NCc2ccccc2S(C)(=O)=O)c2[nH]ccc2n1 [IN-2] | > 10000 nM | > 10000 nM | > 10000 nM | > 10000 nM |  |
| CS(=O)(=O)c1ccccc1CNc1nc(Nc2ccc(N3CCC(O)CC3)cc2)nc2cc[nH]c12 [IN-3] | > 10000 nM | > 10000 nM | > 10000 nM | > 10000 nM |  |
| CS(=O)(=O)c1ccccc1CNc1nc(Nc2ccc(S(N)(=O)=O)cc2)nc2cc[nH]c12 [IN-4] | > 10000 nM | > 10000 nM | > 10000 nM | > 10000 nM |  |
| COc1cc(N2CCN(C)CC2)ccc1Nc1nc(NCc2ccccc2S(=O)(=O)C(C)C)c2[nH]ccc2n1 [IO-1] | 1720 nM | 3400 nM | 4830 nM | 4080 nM |  |
| CC(C)S(=O)(=O)c1ccccc1CNc1nc(Nc2ccc(N3CCC(O)CC3)cc2)nc2cc[nH]c12 [IO-3] | > 10000 nM | > 10000 nM | > 10000 nM | > 10000 nM |  |
| CC(C)S(=O)(=O)c1ccccc1CNc1nc(Nc2ccc(S(N)(=O)=O)cc2)nc2cc[nH]c12 [IO-4] | > 10000 nM | > 10000 nM | > 10000 nM | > 10000 nM |  |
| CC(C)S(=O)(=O)c1ccccc1CNc1nc(Nc2ccc(N3CCN(C)CC3)cc2)nc2cc[nH]c12 [IO-5] | 4870 nM | 5200 nM | 5030 nM | 1910 nM |  |
| CNc1nc(Nc2ccc(N3CCC(N4CCN(C)CC4)CC3)cc2OC)nc2cc[nH]c12 [IQ-2] | > 10000 nM | > 10000 nM | > 10000 nM | > 10000 nM |  |
| CNc1nc(Nc2ccc(N3CCC(O)CC3)cc2)nc2cc[nH]c12 [IQ-3] | > 10000 nM | > 10000 nM | > 10000 nM | > 10000 nM |  |
| CNc1nc(Nc2ccc(S(N)(=O)=O)cc2)nc2cc[nH]c12 [IQ-4] | > 10000 nM | > 10000 nM | > 10000 nM | > 10000 nM |  |
| CNc1nc(Nc2ccc(C(=O)N3CCOCC3)cc2OC)nc2cc[nH]c12 [IQ-5] | > 10000 nM | > 10000 nM | > 10000 nM | > 10000 nM |  |
| CNc1nc(Nc2ccc(C(=O)N3CCN(C)CC3)cc2OC)nc2cc[nH]c12 [IQ-6] | > 10000 nM | > 10000 nM | > 10000 nM | > 10000 nM |  |
| CCNc1nc(Nc2ccc(N3CCN(C)CC3)cc2OC)nc2cc[nH]c12 [IR-1] | > 10000 nM | > 10000 nM | > 10000 nM | > 10000 nM |  |
| CCNc1nc(Nc2ccc(N3CCC(N4CCN(C)CC4)CC3)cc2OC)nc2cc[nH]c12 [IR-2] | > 10000 nM | > 10000 nM | > 10000 nM | > 10000 nM |  |
| CCNc1nc(Nc2ccc(N3CCC(O)CC3)cc2)nc2cc[nH]c12 [IR-3] | > 10000 nM | > 10000 nM | > 10000 nM | > 10000 nM |  |

Further lines, with some results ahead:

| IC50 (EML4-ALK-BaF3) | IC50 (EML4-ALK (L1196M)-BaF3) | IC50 (NPM-ALK-BaF3) | Compound | IC50 (wild type BaF3; Table 11) | further results |
| --- | --- | --- | --- | --- | --- |
| ~2550 nM | 1700 nM | 1790 nM | COc1cc(N2CCN(C)CC2)ccc1Nc1nc(NC2CC2)c2[nH]ccc2n1 [IS-1] | 5330 nM |  |
| > 10000 nM | 5030 nM | > 10000 nM | COc1cc(N2CCC(N3CCN(C)CC3)CC2)ccc1Nc1nc(NC2CC2)c2[nH]ccc2n1 [IS-2] | > 10000 nM |  |
| 4480 nM | 9710 nM | > 10000 nM | OC1CCN(c2ccc(Nc3nc(NC4CC4)c4[nH]ccc4n3)cc2)CC1 [IS-3] | 11800 nM |  |
| > 10000 nM | > 10000 nM | > 10000 nM | NS(=O)(=O)c1ccc(Nc2nc(NC3CC3)c3[nH]ccc3n2)cc1 [IS-4] | > 10000 nM |  |
| > 10000 nM | > 10000 nM | > 10000 nM | COC(=O)c1ccccc1Sc1nc(Nc2ccc(N3CCN(C)CC3)cc2OC)nc2cc[nH]c12 [IU-1] | > 10000 nM |  |
| 4580 nM | 2670 nM | 4900 nM | COC(=O)c1ccccc1Sc1nc(Nc2ccc(N3CCC(N4CCN(C)CC4)CC3)cc2OC)nc2cc[nH]c12 [IU-2] | ~8340 nM |  |
| 4900 nM | 4180 nM | 8270 nM | COC(=O)c1ccccc1Sc1nc(Nc2ccc(N3CCC(O)CC3)cc2)nc2cc[nH]c12 [IU-3] | 6520 nM |  |
| 9110 nM | 5990 nM | > 10000 nM | COC(=O)c1ccccc1Sc1nc(Nc2ccc(S(N)(=O)=O)cc2)nc2cc[nH]c12 [IU-4] | > 10000 nM |  |
| ~2880 nM | ~2510 nM | ~2850 nM | COC(=O)c1ccccc1Sc1nc(Nc2ccc(N3CCC(N4CCCC4)CC3)cc2OC)nc2cc[nH]c12 [IU-5] | ~7720 nM |  |
| 6900 nM | 7310 nM | > 10000 nM | COC(=O)c1ccccc1Oc1nc(Nc2ccc(N3CCN(C)CC3)cc2OC)nc2cc[nH]c12 [IV-1] | > 10000 nM |  |
| ~8980 nM | 3960 nM | ~9140 nM | COC(=O)c1ccccc1Oc1nc(Nc2ccc(N3CCC(N4CCN(C)CC4)CC3)cc2OC)nc2cc[nH]c12 [IV-2] | ~8450 nM |  |
| 4550 nM | 4340 nM | 8150 nM | COC(=O)c1ccccc1Oc1nc(Nc2ccc(N3CCC(O)CC3)cc2)nc2cc[nH]c12 [IV-3] | 8920 nM |  |
| > 10000 nM | > 10000 nM | > 10000 nM | COC(=O)c1ccccc1Oc1nc(Nc2ccc(S(N)(=O)=O)cc2)nc2cc[nH]c12 [IV-4] | > 10000 nM |  |

Reference: patent publication US10508118B2, “Pyrimidopyrrole compounds, method for preparing the same, pharmaceutical compositions comprising the same and uses thereof” (Xiamen University, priority 2015, dated 2019)
